According to the NIST ThermoML archive (doi:10.1021/je0301038):
± gives the expanded uncertainty stated by the source.

Test: xn = mol fraction of the nth substance listed
Details: Liquid, Pycnometric method, x1 = 0.4998

FC(Cl)(Cl)Cl [trichlorofluoromethane] + FC(F)(Cl)Cl
Details	mass density [kg/m3]
229.99 K, 36407 kPa	1642.58 ± 1.7
230 K, 1073 kPa	1584.87 ± 2
230 K, 2061 kPa	1587.07 ± 2
230 K, 3560 kPa	1589.87 ± 2
230.01 K, 1362 kPa	1585.49 ± 2
230.01 K, 1769 kPa	1586.39 ± 2
230.01 K, 2415 kPa	1587.69 ± 2
230.01 K, 2764 kPa	1588.35 ± 2
230.01 K, 3080 kPa	1589 ± 2
230.01 K, 10736 kPa	1602.83 ± 1.9
230.01 K, 22197 kPa	1621.64 ± 1.8
230.01 K, 50366 kPa	1660.98 ± 1.7
230.01 K, 63788 kPa	1677.26 ± 1.6
270 K, 755 kPa	1479.99 ± 2
270 K, 1039 kPa	1480.78 ± 2
270 K, 1716 kPa	1482.68 ± 2
270 K, 2040 kPa	1483.59 ± 2
270 K, 2400 kPa	1484.58 ± 2
270 K, 2768 kPa	1485.54 ± 2
270 K, 3627 kPa	1487.88 ± 2
270 K, 15483 kPa	1517.06 ± 1.8
270 K, 25381 kPa	1538 ± 1.7
270 K, 35970 kPa	1557.73 ± 1.7
270 K, 45944 kPa	1574.79 ± 1.6
270 K, 56182 kPa	1590.7 ± 1.6
270 K, 63322 kPa	1601.09 ± 1.6
270.01 K, 1412 kPa	1481.79 ± 2
270.01 K, 3077 kPa	1486.41 ± 2
270.01 K, 8526 kPa	1500.56 ± 1.9
298.14 K, 686 kPa	1402.27 ± 2.1
298.14 K, 1019 kPa	1403.48 ± 2.1
298.14 K, 2067 kPa	1407.39 ± 2.1
298.14 K, 2429 kPa	1408.71 ± 2.1
298.14 K, 2749 kPa	1409.89 ± 2.1
298.14 K, 6905 kPa	1424.28 ± 2
298.14 K, 14368 kPa	1447.12 ± 1.9
298.14 K, 20993 kPa	1465.01 ± 1.8
298.14 K, 42543 kPa	1512.9 ± 1.6
298.14 K, 50266 kPa	1527.35 ± 1.6
298.14 K, 57226 kPa	1539.49 ± 1.6
298.14 K, 63755 kPa	1550.31 ± 1.6
298.14 K, 69807 kPa	1559.74 ± 1.5
298.15 K, 1398 kPa	1404.87 ± 2.1
298.15 K, 1714 kPa	1406.06 ± 2.1
298.15 K, 3086 kPa	1411.1 ± 2.1
298.15 K, 3454 kPa	1412.44 ± 2.1
298.15 K, 28151 kPa	1482.31 ± 1.7
298.15 K, 36116 kPa	1499.98 ± 1.6
319.99 K, 1077 kPa	1338.31 ± 2.4
319.99 K, 1422 kPa	1340.05 ± 2.4
319.99 K, 1769 kPa	1341.72 ± 2.3
319.99 K, 2102 kPa	1343.35 ± 2.3
319.99 K, 2468 kPa	1345.14 ± 2.3
319.99 K, 2807 kPa	1346.81 ± 2.3
319.99 K, 3154 kPa	1348.46 ± 2.3
319.99 K, 3382 kPa	1349.54 ± 2.2
319.99 K, 7540 kPa	1367.61 ± 2.1
319.99 K, 14192 kPa	1392.66 ± 1.9
319.99 K, 20555 kPa	1413.23 ± 1.8
319.99 K, 27780 kPa	1434.19 ± 1.7
319.99 K, 36829 kPa	1456.94 ± 1.6
319.99 K, 43292 kPa	1471.79 ± 1.6
319.99 K, 49802 kPa	1485.45 ± 1.5
319.99 K, 56704 kPa	1498.94 ± 1.5
319.99 K, 62748 kPa	1510.07 ± 1.5
319.99 K, 69080 kPa	1521.1 ± 1.5
349.98 K, 1415 kPa	1240.4 ± 2.5
349.98 K, 2137 kPa	1246.23 ± 2.7
349.98 K, 2476 kPa	1248.87 ± 2.6
349.98 K, 2793 kPa	1251.27 ± 2.6
349.98 K, 3057 kPa	1253.22 ± 2.5
349.98 K, 3564 kPa	1256.93 ± 2.5
349.98 K, 7128 kPa	1280.11 ± 2.3
349.98 K, 14242 kPa	1317.8 ± 2
349.98 K, 21180 kPa	1347.2 ± 1.8
349.98 K, 27731 kPa	1370.9 ± 1.7
349.98 K, 35848 kPa	1396.4 ± 1.6
349.98 K, 42725 kPa	1415.5 ± 1.6
349.98 K, 49699 kPa	1433.1 ± 1.6
349.98 K, 63152 kPa	1463.4 ± 1.5
349.98 K, 67876 kPa	1472.9 ± 1.5
349.99 K, 1706 kPa	1242.74 ± 2.6
349.99 K, 56839 kPa	1449.7 ± 1.5
374.97 K, 2088 kPa	1141.8 ± 3.1
374.97 K, 2486 kPa	1147.25 ± 3.3
374.97 K, 3125 kPa	1156.09 ± 3.4
374.97 K, 3513 kPa	1160.16 ± 3.3
374.97 K, 7191 kPa	1197.39 ± 2.6
374.97 K, 13814 kPa	1245.37 ± 2.1
374.97 K, 21029 kPa	1284.3 ± 1.9
374.97 K, 35276 kPa	1341.17 ± 1.7
374.98 K, 2825 kPa	1151.69 ± 3.3
374.98 K, 27477 kPa	1312.44 ± 1.8
374.98 K, 42480 kPa	1364.11 ± 1.6
374.98 K, 49122 kPa	1383.05 ± 1.6
374.98 K, 55869 kPa	1400.52 ± 1.6
374.98 K, 61365 kPa	1413.75 ± 1.5
374.98 K, 69602 kPa	1432.06 ± 1.6
399.96 K, 3164 kPa	1019.46 ± 4
399.96 K, 4220 kPa	1047.59 ± 4.6
399.96 K, 21341 kPa	1223.13 ± 2
399.97 K, 3545 kPa	1030.57 ± 4.2
399.97 K, 4902 kPa	1062.22 ± 4.8
399.97 K, 5593 kPa	1075.12 ± 4.6
399.97 K, 6171 kPa	1085.57 ± 3.5
399.97 K, 7297 kPa	1101.78 ± 3.2
399.97 K, 14445 kPa	1176.05 ± 2.3
399.97 K, 27495 kPa	1255.89 ± 1.8
399.97 K, 42176 kPa	1315.43 ± 1.6
399.97 K, 49196 kPa	1338.37 ± 1.6
399.97 K, 56478 kPa	1359.31 ± 1.6
399.98 K, 35409 kPa	1290.45 ± 1.7
399.98 K, 62903 kPa	1376.29 ± 1.5
399.98 K, 68677 kPa	1390.42 ± 1.6
424.96 K, 4905 kPa	873.33 ± 5.4
424.96 K, 5555 kPa	914.74 ± 4.7
424.96 K, 6222 kPa	944.04 ± 4.2
424.96 K, 7091 kPa	972.83 ± 3.5
424.96 K, 13955 kPa	1091.53 ± 2.8
424.96 K, 27401 kPa	1198.64 ± 1.9
424.97 K, 21076 kPa	1156.9 ± 2.1
424.97 K, 35181 kPa	1238.98 ± 1.7
424.97 K, 41997 kPa	1268.18 ± 1.6
424.97 K, 49019 kPa	1294.18 ± 1.6
424.97 K, 56094 kPa	1317.32 ± 1.6
424.97 K, 62391 kPa	1335.91 ± 1.6
424.97 K, 68657 kPa	1352.82 ± 1.6
